pIC50: −log10 of the molar value. Values joined by “and” are separate entries in the source; they are usually repeats but may differ in a detail not shown here. Equal values may be shown once.
Test system: 945468-187-T-J2-PDC spheroids viability
Assay: Anticancer human tumor 945468-187-T-J2-PDC patient-derived rectal carcinoma cell line growth inhibition [PI3K]
Conditions: spheroids with HUVEC and MSC; for viability, T/C: stronger effect = lower value; active = viability on the fitted dose curve at most 10% of control; inactive = the rest
Summary of the method: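 Spheroid viability read-out. Co-cultures contained the tumor line plus HUVEC and human MSCs. Each agent was paired with a PI3K inhibitor (inavolisib, alpelisib, duvelisib, copanlisib) across half-log dilutions starting at clinical Cmax, or at 10 microM when Cmax was unknown.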

[1] = curve of first compound, second compound 0.0316 µM
[2] = curve of first compound, second compound 0.1 µM
[3] = curve of first compound, second compound 0.316 µM
[4] = curve of first compound, second compound 1 µM
[5] = second compound 0.0316 µM, first compound 0.0316 µM
[6] = second compound 0.0316 µM, first compound 0.1 µM
[7] = second compound 0.0316 µM, first compound 0.316 µM
[8] = second compound 0.0316 µM, first compound 1 µM
[9] = second compound 0.0316 µM, first compound 3.16 µM
[10] = second compound 0.0316 µM, first compound 10 µM
[11] = second compound 0.1 µM, first compound 0.0316 µM
[12] = second compound 0.1 µM, first compound 0.1 µM
[13] = second compound 0.1 µM, first compound 0.316 µM
[14] = second compound 0.1 µM, first compound 1 µM
[15] = second compound 0.1 µM, first compound 3.16 µM
[16] = second compound 0.1 µM, first compound 10 µM
[17] = second compound 0.316 µM, first compound 0.0316 µM
[18] = second compound 0.316 µM, first compound 0.1 µM
[19] = second compound 0.316 µM, first compound 0.316 µM
[20] = second compound 0.316 µM, first compound 1 µM
[21] = second compound 0.316 µM, first compound 3.16 µM
[22] = second compound 0.316 µM, first compound 10 µM
[23] = second compound 1 µM, first compound 0.0316 µM
[24] = second compound 1 µM, first compound 0.1 µM
[25] = second compound 1 µM, first compound 0.316 µM
[26] = second compound 1 µM, first compound 1 µM
[27] = second compound 1 µM, first compound 3.16 µM
[28] = second compound 1 µM, first compound 10 µM
[29] = curve of first compound, second compound 0.00316 µM
[30] = curve of first compound, second compound 0.01 µM
[31] = second compound 0.00316 µM, first compound 0.0316 µM
[32] = second compound 0.00316 µM, first compound 0.1 µM
[33] = second compound 0.00316 µM, first compound 0.316 µM
[34] = second compound 0.00316 µM, first compound 1 µM
[35] = second compound 0.01 µM, first compound 0.0316 µM
[36] = second compound 0.01 µM, first compound 0.1 µM
[37] = second compound 0.01 µM, first compound 0.316 µM
[38] = second compound 0.01 µM, first compound 1 µM
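Also: spheroids exposed to compounds for seven days before reading.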

CCCS(=O)(=O)Nc1ccc(F)c(C(=O)c2c[nH]c3ncc(-c4ccc(Cl)cc4)cc23)c1F + CC(Nc1ncnc2nc[nH]c12)c1cc2cccc(Cl)c2c(=O)n1-c1ccccc1
5.24: pIC50 [4]
5.23: pIC50 (curve of first compound, second compound 3.16 µM)
inactive: viability, T/C [5] 105% | viability, T/C [6] 103% | viability, T/C [7] 104% | viability, T/C [8] 89.2% | viability, T/C [9] 73.4% | viability, T/C [11] 132% | viability, T/C [12] 83.2% | viability, T/C [13] 89% | viability, T/C [14] 93.8% | viability, T/C [15] 83.8% | viability, T/C [17] 107% | viability, T/C [18] 110% | viability, T/C [19] 85.2% | viability, T/C [20] 107% | viability, T/C [21] 89.6% | viability, T/C [23] 104% | viability, T/C [24] 99.2% | viability, T/C [25] 93% | viability, T/C [26] 99.6% | viability, T/C [27] 108% | viability, T/C (second compound 3.16 µM, first compound 0.0316 µM) 98.6% | viability, T/C (second compound 3.16 µM, first compound 0.1 µM) 106% | viability, T/C (second compound 3.16 µM, first compound 0.316 µM) 100% | viability, T/C (second compound 3.16 µM, first compound 1 µM) 98.8% | viability, T/C (second compound 3.16 µM, first compound 3.16 µM) 113% | viability, T/C (second compound 10 µM, first compound 0.0316 µM) 98.2% | viability, T/C (second compound 10 µM, first compound 0.1 µM) 93.9% | viability, T/C (second compound 10 µM, first compound 0.316 µM) 101% | viability, T/C (second compound 10 µM, first compound 1 µM) 95.6% | viability, T/C (second compound 10 µM, first compound 3.16 µM) 93.5%
5.30: pIC50 [2]
5.34: pIC50 [1]
5.27: pIC50 [3]
5.25: pIC50 (curve of first compound, second compound 10 µM)
active: viability, T/C [10] 2.78% | viability, T/C [16] 4.23% | viability, T/C [22] 4.32% | viability, T/C [28] 4.79% | viability, T/C (second compound 3.16 µM, first compound 10 µM) 5.45% | viability, T/C (second compound 10 µM, first compound 10 µM) 6.8%

CNC(=O)c1ccc(N2C(=S)N(c3ccc(C#N)c(C(F)(F)F)c3)C(=O)C2(C)C)cc1F + CC(Nc1ccc2c(c1)OCCn1cc(N3C(=O)OCC3C(F)F)nc1-2)C(N)=O
inactive: viability, T/C [31] 96.3% | viability, T/C [32] 84.8% | viability, T/C [33] 123% | viability, T/C [34] 95% | viability, T/C (second compound 0.00316 µM, first compound 3.16 µM) 83.4% | viability, T/C (second compound 0.00316 µM, first compound 10 µM) 80.1% | viability, T/C [35] 95.5% | viability, T/C [36] 82% | viability, T/C [37] 85.4% | viability, T/C [38] 103% | viability, T/C (second compound 0.01 µM, first compound 3.16 µM) 96.8% | viability, T/C (second compound 0.01 µM, first compound 10 µM) 84.4% | viability, T/C [5] 93.9% | viability, T/C [6] 78.2% | viability, T/C [7] 102% | viability, T/C [8] 103% | viability, T/C [9] 99.4% | viability, T/C [10] 90.3% | viability, T/C [11] 103% | viability, T/C [12] 124% | viability, T/C [13] 96.4% | viability, T/C [14] 92.5% | viability, T/C [15] 86.5% | viability, T/C [16] 76% | viability, T/C [17] 91% | viability, T/C [18] 95.5% | viability, T/C [19] 88.6% | viability, T/C [20] 88.6% | viability, T/C [21] 89.1% | viability, T/C [22] 71.6% | viability, T/C [23] 84.4% | viability, T/C [24] 88.6% | viability, T/C [25] 86.7% | viability, T/C [26] 87.4% | viability, T/C [27] 64.4% | viability, T/C [28] 79.6%
< 5.00: pIC50 [29] | pIC50 [30] | pIC50 [1] | pIC50 [2] | pIC50 [3] | pIC50 [4]

CCN1CCN(Cc2ccc(Nc3ncc(F)c(-c4cc(F)c5nc(C)n(C(C)C)c5c4)n3)nc2)CC1 + COc1c(OCCCN2CCOCC2)ccc2c3n(c(=NC(=O)c4cnc(N)nc4)nc12)CCN3
6.15: pIC50 [1]
6.70: pIC50 [2]
< 6.00: pIC50 [29] | pIC50 [30]
> 8.50: pIC50 [3] | pIC50 [4]
inactive: viability, T/C (second compound 0.00316 µM, first compound 0.00316 µM) 107% | viability, T/C (second compound 0.00316 µM, first compound 0.01 µM) 93.5% | viability, T/C [31] 104% | viability, T/C [32] 102% | viability, T/C [33] 87.6% | viability, T/C [34] 75.1% | viability, T/C (second compound 0.01 µM, first compound 0.00316 µM) 119% | viability, T/C (second compound 0.01 µM, first compound 0.01 µM) 128% | viability, T/C [35] 94.9% | viability, T/C [36] 115% | viability, T/C [37] 84% | viability, T/C [38] 66.2% | viability, T/C (second compound 0.0316 µM, first compound 0.00316 µM) 120% | viability, T/C (second compound 0.0316 µM, first compound 0.01 µM) 110% | viability, T/C [5] 92.9% | viability, T/C [6] 112% | viability, T/C [7] 69% | viability, T/C [8] 41.6% | viability, T/C (second compound 0.1 µM, first compound 0.00316 µM) 105% | viability, T/C (second compound 0.1 µM, first compound 0.01 µM) 91.8% | viability, T/C [11] 93.1% | viability, T/C [12] 72.7% | viability, T/C [13] 34.4% | viability, T/C [14] 22.1% | viability, T/C (second compound 0.316 µM, first compound 0.00316 µM) 48.7% | viability, T/C (second compound 0.316 µM, first compound 0.01 µM) 41.2% | viability, T/C [17] 39.5% | viability, T/C [18] 24.4% | viability, T/C [19] 20.2% | viability, T/C [20] 21.4% | viability, T/C (second compound 1 µM, first compound 0.00316 µM) 21.7% | viability, T/C (second compound 1 µM, first compound 0.01 µM) 20.8% | viability, T/C [23] 14.1% | viability, T/C [24] 17.9% | viability, T/C [25] 14.3% | viability, T/C [26] 16.3%

C=CC(=O)N1CCN(c2nc(=O)n(-c3c(C)ccnc3C(C)C)c3nc(-c4c(O)cccc4F)c(F)cc23)C(C)C1 (stereo unspecified)
inactive: viability, T/C (compound 0.1 µM) 104% [middle of 4 runs] | viability, T/C (compound 0.316 µM) 95.7% [middle of 4 runs] | viability, T/C (compound 3.16 µM) 104% (2×) and 113% and 89.9% | viability, T/C (compound 10 µM) 107% [middle of 4 runs]
< 5.00: pIC50 (curve of compound)
